Reference: PMC11855478, “Bicyclic N,S-Acetals Containing Fused Cysteine-Amide System as New Heterocyclic Class Targeting Human Farnesyltransferase (FTase-h)” (International Journal of Molecular Sciences, 2025)

Columns and labels:
[1] = molecular target: human farnesyltransferase (FTase) (Homo sapiens, UniProt P49354+P49356); test: FTase inhibitory assay (fluorescence, Dansyl-GCVLS); format: biochemical; settings: for % FTI: inhibition of human FTase at 100 μM of tested compound, mean of two experiments
How it was run: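 Partially purified recombinant FTase with Dansyl-GCVLS and farnesyl pyrophosphate in Tris/HCl pH 7.5 (DTT, MgCl2, ZnCl2, octyl-glucoside); fluorescence (ex 340/em 486 nm) read 15 min at 30 °C. IC50 by regression for compounds inhibiting >60% at 100 µM; kinetics varied FPP (Dns-GCVLS 2.5 μM) or peptide (FPP 10 μM).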

RPMI-8226 (Leukemia) = test: NCI one dose, RPMI-8226; format: cell-based, human; settings: RPMI-8226, 1.00E-5 Molar one dose
Protocol: (§1) 3.4. Cell Proliferation Assay
(§2) Selected compounds were tested on a panel of 60 human cancer cell lines at the National Cancer Institute (NCI), Germantown, MD, USA. The cytotoxicity studies were conducted using a 48 h exposure protocol using the sulfo-rhodamine B assay.

SR (Leukemia) = test: NCI one dose, SR; format: cell-based, human; settings: 1.00E-5 Molar one dose
Protocol: as §1, §2

[2] = test system: EKVX (Non-Small Cell Lung Cancer); test: NCI one dose, EKVX; format: cell-based, human; settings: 1.00E-5 Molar one dose
Protocol: as §1, §2

[3] = test system: HOP-62 (Non-Small Cell Lung Cancer); test: NCI one dose, HOP-62; format: cell-based, human; settings: HOP-62, 1.00E-5 Molar one dose
Protocol: as §1, §2

[4] = test system: HOP-92 (Non-Small Cell Lung Cancer); test: NCI one dose, HOP-92; format: cell-based, human; settings: HOP-92, 1.00E-5 Molar one dose
Protocol: as §1, §2

[5] = test system: NCI-H522 non-small cell lung cancer cells; test: NCI cell proliferation, NCI-H522; format: cell-based, human; settings: for inhibition at 10 µM / GI50: Homo sapiens, NCI-H522; for inhibition at 10 µM: read-out: % Cancer cell growth Inhibition (NCI-H522); for Growth Percent: NCI-H522, 1.00E-5 Molar one dose
Protocol: as §1, §2

COLO 205 (Colon Cancer) = test: NCI one dose, COLO 205; format: cell-based, human; settings: COLO 205, 1.00E-5 Molar one dose
Protocol: as §1, §2

KM12 (Colon Cancer) = test: NCI one dose, KM12; format: cell-based, human; settings: KM12, 1.00E-5 Molar one dose
Protocol: as §1, §2

SNB-19 (CNS Cancer) = test: NCI one dose, SNB-19; format: cell-based, human; settings: SNB-19, 1.00E-5 Molar one dose
Protocol: as §1, §2

LOX IMVI (Melanoma) = test: NCI one dose, LOX IMVI; format: cell-based, human; settings: 1.00E-5 Molar one dose
Protocol: as §1, §2

MALME-3M (Melanoma) = test: NCI one dose, MALME-3M; format: cell-based, human; settings: 1.00E-5 Molar one dose
Protocol: as §1, §2

M14 (Melanoma) = test: NCI one dose, M14; format: cell-based, human; settings: M14, 1.00E-5 Molar one dose
Protocol: as §1, §2

MDA-MB-435 (Melanoma) = test: NCI one dose, MDA-MB-435; format: cell-based, human; settings: MDA-MB-435, 1.00E-5 Molar one dose
Protocol: as §1, §2

UACC-257 melanoma cells = test: NCI one dose, UACC-257; format: cell-based, human; settings: for Growth Percent: UACC-257, 1.00E-5 Molar one dose
Protocol: as §1, §2

UACC-62 (Melanoma) = test: NCI one dose, UACC-62; format: cell-based, human; settings: UACC-62, 1.00E-5 Molar one dose
Protocol: as §1, §2

IGROV1 (Ovarian Cancer) = test: NCI one dose, IGROV1; format: cell-based, human; settings: IGROV1, 1.00E-5 Molar one dose
Protocol: as §1, §2

OVCAR-8 (Ovarian Cancer) = test: NCI one dose, OVCAR-8; format: cell-based, human; settings: OVCAR-8, 1.00E-5 Molar one dose
Protocol: as §1, §2

786-0 (Renal Cancer) = test: NCI one dose, 786-0; format: cell-based, human; settings: 786-0, 1.00E-5 Molar one dose
Protocol: as §1, §2

ACHN (Renal Cancer) = test: NCI one dose, ACHN; format: cell-based, human; settings: 1.00E-5 Molar one dose
Protocol: as §1, §2

SN12C (Renal Cancer) = test: NCI one dose, SN12C; format: cell-based, human; settings: 1.00E-5 Molar one dose
Protocol: as §1, §2

UO-31 renal cancer cells = test: NCI one dose, UO-31; format: cell-based, human; settings: for Growth Percent: UO-31, 1.00E-5 Molar one dose
Protocol: as §1, §2

PC-3 (Prostate Cancer) = test: NCI one dose, PC-3; format: cell-based, human; settings: PC-3, 1.00E-5 Molar one dose
Protocol: as §1, §2

MCF7 (Breast Cancer) = test: NCI one dose, MCF7; format: cell-based, human; settings: MCF7, 1.00E-5 Molar one dose
Protocol: as §1, §2

[6] = test system: MDA-MB-231/ATCC (Breast Cancer); test: NCI one dose, MDA-MB-231/ATCC; format: cell-based, human; settings: 1.00E-5 Molar one dose
Protocol: as §1, §2

HS 578T (Breast Cancer) = test: NCI one dose, HS 578T; format: cell-based, human; settings: 1.00E-5 Molar one dose
Protocol: as §1, §2

T-47D (Breast Cancer) = test: NCI one dose, T-47D; format: cell-based, human; settings: 1.00E-5 Molar one dose
Protocol: as §1, §2

[7] = test system: MDA-MB-468 breast cancer cells; test: NCI one dose, MDA-MB-468; format: cell-based, human; settings: for Growth Percent: MDA-MB-468, 1.00E-5 Molar one dose
Protocol: as §1, §2

Structure (SMILES) | % FTI [1] [%] | Growth Percent (RPMI-8226 (Leukemia)) [%] | Growth Percent (SR (Leukemia)) [%] | Growth Percent [2] [%] | Growth Percent [3] [%] | Growth Percent [4] [%] | inhibition at 10 µM [5] [%] | Growth Percent [5] [%] | Growth Percent (COLO 205 (Colon Cancer)) [%] | Growth Percent (KM12 (Colon Cancer)) [%] | Growth Percent (SNB-19 (CNS Cancer)) [%] | Growth Percent (LOX IMVI (Melanoma)) [%] | Growth Percent (MALME-3M (Melanoma)) [%] | Growth Percent (M14 (Melanoma)) [%] | Growth Percent (MDA-MB-435 (Melanoma)) [%] | Growth Percent (UACC-257 melanoma cells) [%] | Growth Percent (UACC-62 (Melanoma)) [%] | Growth Percent (IGROV1 (Ovarian Cancer)) [%] | Growth Percent (OVCAR-8 (Ovarian Cancer)) [%] | Growth Percent (786-0 (Renal Cancer)) [%] | also measured
COc1ccc(CNC(=O)[C@@H]2CS[C@@]3(C)c4ccccc4C(=O)N23)cc1OC [4bI] | 78 | 81.37 | 75.23 | 107.62 | 97.01 | 93.76 | 45 | 54.70 | 107.68 | 102.81 | 96.85 | 100.38 | 106.59 | 107.68 | 105.24 | 73.35 | 79.36 | 104.59 | 91.42 | 107.06 | IC50 ([1]; human FTase in vitro): 0.0251 µM; GI50 [5]: 12.9 µM; inhibition at 10 µM (UACC-257 melanoma cells; Homo sapiens, UACC-257, 10 µM single dose, read-out: inhibition of growth of UACC-257 melanoma cells): 27%; Growth Percent (ACHN (Renal Cancer)): 96.90%; Growth Percent (SN12C (Renal Cancer)): 96.04%; inhibition at 10 µM (UO-31 renal cancer cells; Homo sapiens, UO-31, 10 µM single dose, read-out: inhibition of growth of UO-31 renal cancer cells): 20%; Growth Percent (UO-31 renal cancer cells): 79.77%; Growth Percent (PC-3 (Prostate Cancer)): 88.41%; Growth Percent (MCF7 (Breast Cancer)): 87.17%; Growth Percent [6]: 98.00%; Growth Percent (HS 578T (Breast Cancer)): 94.35%; Growth Percent (T-47D (Breast Cancer)): 71.47%; inhibition at 10 µM ([7]; Homo sapiens, MDA-MB-468, 10 µM single dose, read-out: inhibition of growth of MDA-MB-468 breast cancer cells): 30%; Growth Percent [7]: 70.36%
COc1ccc(CNC(=O)[C@@H]2CS[C@H]3c4ccccc4C(=O)N23)cc1OC [4aI] | 62 | 99.43 | 74.16 | 114.59 | 98.51 | 93.36 | 36 | 63.65 | 111.84 | 107.09 | 104.62 | 99.42 | 102.18 | 107.33 | 107.42 | 75.20 | 98.01 | 109.87 | 88.68 | 106.53 | GI50 [5]: 20.8 µM; Growth Percent (ACHN (Renal Cancer)): 105.56%; Growth Percent (SN12C (Renal Cancer)): 100.89%; Growth Percent (UO-31 renal cancer cells): 94.41%; Growth Percent (PC-3 (Prostate Cancer)): 88.12%; Growth Percent (MCF7 (Breast Cancer)): 99.04%; Growth Percent [6]: 102.55%; Growth Percent (HS 578T (Breast Cancer)): 98.06%; Growth Percent (T-47D (Breast Cancer)): 85.94%; Growth Percent [7]: 102.27%
COc1ccc(CNC(=O)[C@@H]2CS[C@@]3(C)c4ccccc4C(=O)N23)cc1 [4bF] | 67 | 88.87 | 84.33 | 106.83 | 95.58 | 80.27 | 28 | 72.32 | 108.39 | 96.53 | 99.83 | 102.28 | 111.34 | 102.83 | 102.01 | 87.83 | 93.24 | 107.92 | 94.06 | 98.12 | IC50 ([1]; human FTase in vitro): 9.21 µM; Growth Percent (ACHN (Renal Cancer)): 101.13%; Growth Percent (SN12C (Renal Cancer)): 101.88%; Growth Percent (UO-31 renal cancer cells): 89.30%; Growth Percent (PC-3 (Prostate Cancer)): 93.51%; Growth Percent (MCF7 (Breast Cancer)): 90.37%; Growth Percent [6]: 93.86%; Growth Percent (HS 578T (Breast Cancer)): 96.39%; Growth Percent (T-47D (Breast Cancer)): 97.83%; Growth Percent [7]: 86.72%

More lines, main results first:

% FTI [1] [%] | Structure (SMILES) | Growth Percent (RPMI-8226 (Leukemia)) [%] | Growth Percent (SR (Leukemia)) [%] | Growth Percent [2] [%] | Growth Percent [3] [%] | Growth Percent [4] [%] | inhibition at 10 µM [5] [%] | Growth Percent [5] [%] | Growth Percent (COLO 205 (Colon Cancer)) [%] | Growth Percent (KM12 (Colon Cancer)) [%] | Growth Percent (SNB-19 (CNS Cancer)) [%] | Growth Percent (LOX IMVI (Melanoma)) [%] | Growth Percent (MALME-3M (Melanoma)) [%] | Growth Percent (M14 (Melanoma)) [%] | Growth Percent (MDA-MB-435 (Melanoma)) [%] | Growth Percent (UACC-257 melanoma cells) [%] | Growth Percent (UACC-62 (Melanoma)) [%] | Growth Percent (IGROV1 (Ovarian Cancer)) [%] | Growth Percent (OVCAR-8 (Ovarian Cancer)) [%] | Growth Percent (786-0 (Renal Cancer)) [%] | also measured
51 | C[C@@]12SC[C@@H](C(=O)NCc3cccc(C(F)(F)F)c3)N1C(=O)c1ccccc12 [4bD] | 85.05 | 75.10 | 98.64 | 90.69 | 88.94 | 31 | 68.93 | 104.27 | 99.50 | 99.21 | 100.31 | 99.33 | 103.59 | 102.18 | 74.68 | 87.82 | 99.72 | 92.35 | 100.40 | Growth Percent (ACHN (Renal Cancer)): 95.88%; Growth Percent (SN12C (Renal Cancer)): 93.35%; Growth Percent (UO-31 renal cancer cells): 81.22%; Growth Percent (PC-3 (Prostate Cancer)): 92.84%; Growth Percent (MCF7 (Breast Cancer)): 85.93%; Growth Percent [6]: 97.63%; Growth Percent (HS 578T (Breast Cancer)): 96.99%; Growth Percent (T-47D (Breast Cancer)): 89.18%; Growth Percent [7]: 97.93%
74 | COc1cc(CNC(=O)[C@@H]2CS[C@@]3(C)c4ccccc4C(=O)N23)cc(OC)c1OC [4bJ] | 90.22 | 77.35 | 108.30 | 90.09 | 88.36 | 31 | 68.76 | 105.48 | 106.18 | 93.01 | 105.04 | 108.52 | 108.34 | 104.68 | 73.76 | 92.46 | 106.56 | 92.35 | 102.08 | IC50 ([1]; human FTase): 4.35 µM; IC50 ([1]; human FTase in vitro): 4.35 µM; Growth Percent (ACHN (Renal Cancer)): 97.41%; Growth Percent (SN12C (Renal Cancer)): 91.58%; Growth Percent (UO-31 renal cancer cells): 90.29%; Growth Percent (PC-3 (Prostate Cancer)): 89.97%; Growth Percent (MCF7 (Breast Cancer)): 93.75%; Growth Percent [6]: 98.30%; Growth Percent (HS 578T (Breast Cancer)): 94.07%; Growth Percent (T-47D (Breast Cancer)): 87.15%; Growth Percent [7]: 89.65%
49 | C[C@@]12SC[C@@H](C(=O)NCc3ccccc3)N1C(=O)c1ccccc12 [4bA] | 104.44 | 78.43 | 104.65 | 100.09 | 83.94 | 25 | 74.90 | 108.00 | 102.18 | 100.20 | 101.57 | 107.28 | 101.98 | 101.35 | 79.51 | 97.03 | 105.63 | 90.77 | 101.14 | Growth Percent (ACHN (Renal Cancer)): 102.90%; Growth Percent (SN12C (Renal Cancer)): 95.20%; Growth Percent (UO-31 renal cancer cells): 99.51%; Growth Percent (PC-3 (Prostate Cancer)): 90.34%; Growth Percent (MCF7 (Breast Cancer)): 96.64%; Growth Percent [6]: 99.53%; Growth Percent (HS 578T (Breast Cancer)): 100.47%; Growth Percent (T-47D (Breast Cancer)): 90.12%; Growth Percent [7]: 99.04%
